Details of data set [1]: method as in PMID 1693055. The following applies: cited from earlier work.
In the next data set the test system is concanavalin A. The settings on record: for The Mass of the Hind Leg Foot, Con A, Me, Mean ± SD / The Mass of the Hind Leg Foot, Saline, Mc, Mean ± SD: female CBA mice, n = 10, weighed 1 h later; for The Mass of the Hind Leg Foot, Con A, Me, Mean ± SD: Con A 0.5% into pad 1 h post-injection; for The Mass of the Hind Leg Foot, Saline, Mc, Mean ± SD: saline into contralateral pad; for RI (reaction index to concanavalin A) / Relative Increase Me Over Mc: mice; for Relative Increase Me Over Mc: (Me − Mc)/Mc × 100%. Here is the method:
Its administration causes nonimmune activation of histamine release and inflammatory edema at the injection site.
The experiment was carried out in accordance with «Guidelines on the assessment of allergic properties of drugs» [30]. Healthy female CBA mice weighing 20–24 g were divided into five groups, in cages of 10. […] 10 mL/kg of 5% glucose solution was administered to the animals of control group. One hour post-injection, 0.5% Con A in isotonic sodium chloride solution (0.01 mL/10 g body mass) was injected into the pad of the hind legs and the same volume of isotonic solution of sodium chloride was injected into the contralateral extremity of mice in the experimental and control groups. One hour later, the mice were euthanized. The hind legs were amputated at the hock joint and weighed. Relative increase Me over Mc in each group was calculated using the formula (Me − Mc)/Mc × 100%, where Me is the mass of the foot injected with Con A and Mc is the mass of the foot injected with saline solution. The RI of the group of animals receiving the drug, exceeding 20%, is considered significant and indicates an inflammatory reaction to concanavalin A.

The next data set concerns patients. The settings on record: patients treated with vancomycin; cited from earlier work. Here is the method:
This reaction is typically associated with intravenous administration of doses exceeding 1000 mg and administrated at a rate of less than 60 min [5]. […] More recently, the mechanism behind some IgE-independent reactions, previously referred to as pseudo ...

A further data set concerns histamine. Nature of the data set: Histamine in blood plasma after intravenous administration (Histamine-ELISA). The following applies: for Histamine Level in plasma: female CBA mice, n = 10, single i.v., equitoxic doses (~MTD): vancomycin 300 mg/kg, flavancin 100 mg/kg, ELISA. A general note: In an ELISA, binding on a coated surface is turned into a signal by an enzyme label.

Data set [2] deals with guinea pigs. The following applies: Evans blue. Here is the method: In the study of active skin anaphylaxis, the sensitizing doses of flavancin were administered following the same scheme as described previously. The resolving dose, which consisted of a 0.1% solution of the dosage form of the drug in a 5% glucose solution with a volume of 0.05 mL per guinea pig, was administered intradermally 21 days after the last day of sensitization into a previously […] area of the flank skin. After 30 min, both the experimental and control groups of animals were intracardially injected with 0.5 mL of 1% Evans blue solution. Thirty minutes later, the animals were euthanized using ether anesthesia. The skin where the drug was intradermally administrated was then separated, and the diameter of the blue spot was measured and recorded. The collected quantitative data were statistically analyzed using a significance level of p < 0.05.

For data set [3] the following is noted: rat, in vivo, iv, 6.25 mg/kg.
Method: Experimental animals were divided into groups of six at each time point. Flavancin was administered intravenously into the tail vein at a single dose of 6.25 mg/kg (5 TD). Control rats were injected with glucose solution in the same volume. Blood was collected 5, 15, 30 min and 1 h after injection into heparinized plastic tubes. Blood samples were centrifuged for 20 min at 1500 rpm. The supernatant was poured into tubes and stored at −20 °C until chromatographic analysis. Quantitative determination of flavancin in blood samples was carried out by high-performance liquid chromatography method (HPLC) with fluorimetric detection.
The method is based on the chromatography of specially prepared samples using a high-performance liquid chromatograph with a fluorescence detector and a reversed-phase column.
Gradient separation was performed at 40 °C on a column Jupiter C18 (250 mm × 4.6 mm, particle size 5 microns; Security Guard Cartridge, Phenomenex, Torrance, CA, USA). […] Detection was carried out using a fluorescence detector (Waters 2475, Waters Associates, Framingham, MA, USA) (excitation—240 nm, emission—330 nm). […] The lower limit of the quantitative determination of flavancin was 0.8 µg/mL. […]
Eight hundred µL of supernatant was replaced in 1.5 mL Eppendorf plastic tubes. […] The supernatant was analyzed by HPLC. […]
Data set [4] relates to guinea pigs. Nature of the data set: General anaphylaxis reaction (anaphylactic shock).
Method: In order to determine the anaphylactogenic properties of flavancin, we selected two technically simple and easily reproducible tests: general anaphylaxis reaction and active skin anaphylaxis.
Adult guinea pigs weighing 300–350 g were randomized into three groups (n = 10). […] These doses were determined based on the effectiveness in mice (ED100), with adjustments made using the coefficient of the animals’ body surface [28]. Saline was used as the control in the experiment. As for the reference agent, cattle serum was employed, with a dose of 0.1 mL for sensitizing doses and 0.5 mL for the resolving doses. The sensitizing doses were following a scheme: the first injection was given subcutaneously, while the subsequent two injections were administrated intramuscularly, with a 48 h interval between each injection. The resolving dose was administered intracardially 21 days after the last day of sensitization.

Counter-ions that a name gives are not always drawn. Like-named read-outs stand apart in the source and are kept apart here.

Method for histamine: The amount of histamine in the blood plasma of mice was detected 0.5, 1.5 and 3 min after a single intravenous administration of drugs.
Female CBA mice weighing 18–20 g were divided into groups of 10 animals each. Flavancin was dissolved in 5% glucose and administrated via the tail vein to the mice at a dose equivalent to one TD (2.5 mg/kg) or MTD (100 mg/kg). […] Untreated animals were used as the control group.
The animals were euthanized after 0.5, 1 and 1.5 min in an experiment using equiterapeutic doses and 0.5, 1.5 and 3 min for an experiment with the use of equitoxic doses, and the blood samples were collected after the drug administration. Next, 500 µL of whole blood, which had been drawn into 10 µL of heparin (30–50 IU) was centrifuged for 20 min at 2000 rpm. To perform the histamine analyses, 20 µL of plasma was mixed with dilutions of saline at ratios of 1:10 and 1:20. The amount of histamine was determined using an automatic biochemical and enzyme immunoassay analyzer (ChemWell, Awareness Technology, Inc., Palm City, FL, USA). The histamine detection was performed using the Histamine-ELISA reagent kit (Tecan Group Company, Männedorf, Switzerland).

For the compound vancomycin [reference compound], the “Vancomycin concentration in the blood after infusion” value in data set [1] (60-min intravenous infusion at a therapeutic dose, before the decrease) is listed as 51.1 ± 9.2. Also, the “Vancomycin concentration in the blood 1 h after infusion” value in data set [1] (1 h after a 60-min intravenous infusion at a therapeutic dose) is listed as 24.9 ± 2.9. In the data set on concanavalin A (drug i.v. at MTD), the “The Mass of the Hind Leg Foot, Con A, Me, Mean ± SD” value (shortened to “The Mass … Me, Mean ± SD”) is 149.4 ± 3.0 mg and the “The Mass of the Hind Leg Foot, Saline, Mc, Mean ± SD” value (“The Mass … Mc, Mean ± SD” below) is given as 131.8 ± 3.6 mg. Moreover, in the data set on concanavalin A (drug i.v. at TD), the “The Mass … Me, Mean ± SD” value amounted to 158.1 ± 3.8 mg and the “The Mass … Mc, Mean ± SD” value is recorded as 140.4 ± 2.3 mg. For the same compound, the “Occurrence of Red Man Syndrome (non-IgE-mediated hypersensitivity)” value in the data set with patients was 4–47%.
Consider `CN[C@H](CC(C)C)C(=O)N[C@H]1C(=O)N[C@@H](CC(N)=O)C(=O)N[C@H]2C(=O)N[C@H]3C(=O)N[C@H](C(=O)N[C@H](C(=O)NCCNCc4ccccc4F)c4cc(O)cc(O)c4-c4cc3ccc4O)[C@H](O[C@H]3C[C@](C)(N)[C@@H](O)[C@H](C)O3)c3ccc(cc3)Oc3cc2cc(c3O[C@@H]2O[C@H](CO)[C@@H](O)[C@H](O)[C@H]2O[C@H]2C[C@](C)(N)[C@@H](O)[C@H](C)O2)Oc2ccc(cc2Cl)[C@H]1O` [flavancin, N-(2((2-fluorobenzyl)amino)ethyl)amide of eremomycin hydrochloride], for which the “Histamine Level in plasma” value in the data set with histamine (0.5 min) was found to be 549.9 ± 92.6 µg/L; in the data set on histamine (1.5 min), 796.2 ± 56.3 µg/L; in the data set on histamine (3 min) it was 297.7 ± 54.9 µg/L. The “Histamine level in the blood compared to vancomycin” value in the data set with histamine (mice, equivalent (therapeutic) dose, after 30 s) is “three times lower”. Further, the “Blue Spot Diameter” value is listed as 2.3 ± 0.6 cm in the data set with guinea pigs [2] (sensitizing 0.5 mg/kg x3, resolving 0.05 mL per pig of 0.1% solution 21 days after sensitization) and 2.4 ± 0.5 cm in the data set with guinea pigs [2] (sensitizing 1.5 mg/kg x3, resolving 0.05 mL per pig of 0.1% solution 21 days after sensitization). The “The Mass … Me, Mean ± SD” value in the data set with concanavalin A (drug i.v. at MTD) came out at 151.5 ± 3.0 mg; in the data set on concanavalin A (drug i.v. at TD) it was 154.3 ± 2.1 mg. In addition, the “The Mass … Mc, Mean ± SD” value with concanavalin A (drug i.v. at MTD) amounted to 139.3 ± 2.9 mg; in the data set on concanavalin A (drug i.v. at TD) it was 142.1 ± 2.0 mg. The “RI (reaction index to concanavalin A)” value in the data set on concanavalin A (both doses studied (TD and MTD), below 20% means no pseudoallergic reaction) is reported as “less than 20%”; in the data set with concanavalin A (drug i.v. at MTD, RI exceeding 20% is significant), 7.3%; with concanavalin A (drug i.v. at TD, RI exceeding 20% is significant) it was 3.7%. Also, the “Relative Increase Me Over Mc” value in the data set with concanavalin A (drug i.v. at MTD) turned out to be 8.8%; with concanavalin A (drug i.v. at TD) it was 8.5%. Besides, in data set [3], the level at 1 h worked out at 5000 ng/mL. For the same compound, the “Effect (general anaphylaxis reaction, anaphylactic shock)” value was “no” in the data set on guinea pigs [4] (n = 10, sensitized with saline solution 1.0 mL x3, resolving flavancin 3.0 mg/kg intracardially); “does not induce anaphylactic shock and no” in the data set with guinea pigs [4] (n = 10, sensitizing 0.5 mg/kg (1TD) subcutaneous then twice intramuscularly, 48 h interval, resolving 3.0 mg/kg (6TD) intracardially 21 days after sensitization); “does not induce anaphylactic shock and no” in the data set on guinea pigs [4] (n = 10, sensitizing 1.5 mg/kg (3TD) subcutaneous then twice intramuscularly, 48 h interval, resolving 3.0 mg/kg (6TD) intracardially 21 days after sensitization).

These data come from article PMC10675777, “Experimental Evaluation of the Hypersensitivity Reactions of a New Glycopeptide Antibiotic Flavancin in Animal Models” (Pharmaceuticals, 2023).
